# Reference: patent US10195164B2, “Use of disulfiram for inflammatory breast cancer therapy” (Duke University, priority 2015, dated 2019)
# How the values were obtained:
# [1] = test system: ctr1/ctr3Δ mutant MPY17 S. cerevisiae cells; test: Complementation of S. cerevisiae Cu+-transport mutants; format: cell-based, Saccharomyces cerevisiae; conditions: YPEG media, 30° C., 3 days, absorbance at 600 nm
# Protocol: SEY6210 (wild type) (Robinson et al., 1988) and ctr1/ctr3Δ mutant MPY17 S. cerevisiae cells (Pena et al., 1998) were grown in YPEG media (3% ethanol, 3% glycerol, 1% yeast extract, 2% Bacto Peptone, 2% agar) with addition of 0-50 μM known Cu ionophore, zinc pyrithione (ZPT) (Reeder et al., 2011), or DSF. Cells were allowed to grow at 30° C. for 3 days; growth was assessed by measuring optical density at 600 nm on a Spectramax Plus 384 plate reader (Molecular Devices).
# [2] = test system: BCM2 Xenograft brain metastatic cells; conditions: due to upregulation of GSH; cited from earlier work
# rSUM149 cells = test: Trypan blue viability assay; format: cell-based, human; conditions: for effect of Cu chelator on DSF-Cu-induced cell death: BCS 100 μM, TM 10 μM
# Protocol: (§1) Cells were treated for 24 h in regular growth medium with Disulfiram (Sigma), CuSO4 (VWR), SOD mimetic (MnTnHex-2-PyP^5+), bathocuproine disulfonate (BCS, Sigma), and tetrathiomolybdate (TM, Sigma). Cell viability was determined by trypan blue exclusion as described previously (Aird et al., 2008) where % viability was calculated as live cells/total cells×100.
# ALDH = test: ALDEFLUOR assay; format: cell-based, human; conditions: SUM149 cells, 24 h, sub-lethal dose
# Protocol: ALDH enzymatic activity was assessed using the ALDEFLUOR kit (Stem Cell Technologies) according to the manufacturer's instructions. Briefly, cells were incubated with ALDH substrate for 35 minutes at 37° C. The specific ALDH inhibitor diethylaminobenzaldehyde (DEAB) was used as negative control. Sorting gates were established using 7-AAD stained cells for viability and ALDEFLUOR-stained cells treated with DEAB as negative controls. Dot plots from a representative experiment are shown with mean±SEM from four experiments.
# IBC cells = test: Trypan blue viability assay, IBC cell lines overall; format: cell-based
# Protocol: as §1
# Nrf2 = Nrf2 activity assay (ARE luciferase reporter); format: cell-based; conditions: Cu 10 μM, DSF 10-20 μM, DSF-Cu 150 nM
# Protocol: Cells in opaque 96-well plates (Greiner Bio-One) were transfected with pGL4.37 (ARE firefly luciferase reporter, Promega) and pGL4.75 (Renilla luciferase control, Promega) plasmids using a 3:1 ratio of […] (Roche Applied Science, Indianapolis, Ind.) to DNA. The next day, cells were treated with as indicated. After 24 h, the Dual-Glo Luciferase Assay System (Promega) was used and luminescence read on a Veritas microplate luminometer (Turner BioSystems). Firefly luminescence was normalized to Renilla luminescence for each sample, and this value normalized to untreated.
# [3] = test system: IBC cells (SUM149, rSUM149); test: Cell-associated Cu in cell lysates by ICP-HRMS; format: cell-based; conditions: 10 μM Cu, 24 h
# Protocol: Cell lysates were prepared as above. For tumors, a portion of each tumor was placed into tissue lysis buffer (GoldBio Technology) and homogenized using the Bullet Blender Storm and lysis beads (MidSci). Lysates were analyzed for Cu content using a Thermo Scientific Element 2 inductively coupled plasma high-resolution mass spectrometer (ICP-HRMS) at the W. M. Keck Elemental Geochemistry Laboratory (University of Michigan, Ann Arbor, Mich.), and Cu content of lysis buffer blank was subtracted from each sample. Values were normalized to protein for reporting as ng Cu/mg protein.
# SUM149 cells = test: Trypan blue viability assay; format: cell-based, human; conditions: for effect of Cu chelator on DSF-Cu-induced cell death: BCS 100 μM, TM 10 μM
# Protocol: as §1
# tumor xenografts = test: Tumor radiation control curve with MnSOD mimic; format: in vivo
# [4] = accepted daily dosing of 250-500 mg, human plasma; cited from earlier work
compound,measurement,setting,value
zinc pyrithione [ZPT],growth of MPY17 cells,[1],grew similarly to the SEY6210 cells
CC(C)C[C@H](NC(=O)[C@H](Cc1ccccc1)NC(=O)c1cnccn1)B(O)O [bortezomib],fold less sensitive to bortezomib,[2],drugs; brain metastatic cells 60-fold less
MnTnHexyl-2-PyP^5+,effect of SOD mimetic on DSF-Cu cell death,rSUM149 cells; 100-200 μM SOD mimetic,blocked cell death caused by DSF-Cu treatment
"O=S(=O)([O-])[O-].[Cu+2] [Cu, CuSO4]",ALDH+ population,ALDH,neither DSF nor Cu alone affected
same,cytotoxicity,"IBC cells; Cu alone (10 μM), 24 h",not cytotoxic
same,Nrf2 transcriptional activity,Nrf2,induced Nrf2 transcriptional activity
same,Cu accumulation,[3],slight increase
"Cc1cc(-c2ccc(S(=O)(=O)O)cc2)c2ccc3c(-c4ccc(S(=O)(=O)O)cc4)cc(C)nc3c2n1 [BCS, bathocuproine disulphonate]",effect of Cu chelator on DSF-Cu-induced cell death,SUM149 cells,almost completely blocked DSF-Cu-induced cell death
same,effect of Cu chelator on DSF-Cu-induced cell death,rSUM149 cells,almost completely blocked DSF-Cu-induced cell death
"[SH-].[SH-].[S]=[Mo]=[S] [TM, tetrathiomolybdate]",effect of Cu chelator on DSF-Cu-induced cell death,SUM149 cells,almost completely blocked DSF-Cu-induced cell death
same,effect of Cu chelator on DSF-Cu-induced cell death,rSUM149 cells,almost completely blocked DSF-Cu-induced cell death
MnBuOE,dose modifying factor,tumor xenografts; radiosensitization of xenograft tumors,1.3
same,TCD50 dose,"tumor xenografts; total RT applied in 5 fractions, treatment pre- and post-RT, saline controls 47Gy",36.5 Gy
"CCN(CC)C(=S)SSC(=S)N(CC)CC [DSF, Disulfiram]",IC50,"SUM149 cells; Homo sapiens, SUM149, DSF alone, 24 h, trypan blue exclusion",~17 µM
same,IC50,"rSUM149 cells; Homo sapiens, DSF alone, 24 h, trypan blue exclusion",25 to 30 µM
same,concentrations at which DSF induced toxicity,IBC cells; DSF alone,greater than 10 μM
same,plasma concentration,[4],< 2000 nM
